Test results as given in patent US20180071268A1, “COMPOSITIONS AND METHODS FOR TREATING MICROBIOTA-RELATED PSYCHOTROPIC CONDITIONS AND DISEASES” (priority 2013, published 2018).

How the values were obtained:
Assay type in all cases: in vivo, human
[1] = tested on: Autistic Spectrum Disorder(ASD); assay: Treatment of child with Autistic Spectrum Disorder with Aztreonam, then added Vancomycin (case report); settings: Aztreonam 50 mg 3 times daily; about two weeks after starting
Experimental: A child who was diagnosed with development of Autistic Spectrum Disorder(ASD) with change in bowel habit, withdrawal from ‘society’ and loss of vocabulary/words/vocalizing ability as well as reduced socialisation and eye contact was treated with Aztreonam 50 mg 3 times daily.

ASD = assay: Treatment of person with ASD, chronic constipation and abdominal discomfort with oral Vancomycin (case report)
Experimental: A patient was brought by their parent for consultation. They had been suffering from ASD since early childhood but also had chronic constipation and abdominal discomfort. The treatment was focussed on the constipation problem as this was the major component of their complaints when interviewed. They were commenced on to 50 mg Vancomycin twice daily for the first week increasing to 250 mg 3 times daily as an oral dose which is not absorbed. […] However they also noticed a change in behaviour of the child. They were much calmer, with their low vocabulary and inability to complain formally, they were no longer screaming and vocalising their pain using repetitive movements. […] This is both with verbal and non-verbal communication.

OCD = assay: Exemplary treatment of OCD in adult with rifaximin (case report)
Experimental: A married office worker had suffered with OCD since childhood. Having been treated with various pharmacologic agents through life their behaviour patterns were largely controlled except for one behaviour of needing to check gas outlets and powerpoints every night in case their children were hurt or damaged overnight by some unforseen accident. This continued to be a ‘sleep-draining’ issue not controllable by Zoloft, anfranil and other drugs.
They were commenced on rifaximin 500 mg capsules twice daily for the first week, then 1 g twice daily thereafter.
They remain on long term rifaximin.

[2] = tested on: Autism Spectrum Disorder (ASD); assay: Treatment of twin sisters with Autism Spectrum Disorder and OCD component with oral Gentamicin, then added Rifaximin (case report); settings: oral Gentamicin 80 mg 3 times daily in capsules; within three weeks
Experimental: Twin sisters who were diagnosed with Autism Spectrum Disorder (ASD) at different levels of reading capability, writing and comprehension in Grade 3 and 4, together with abdominal cramping and alternating hard/soft defecation changes were started on oral Gentamicin 80 mg 3 times daily in capsules. […] After three weeks Rifaximin was added to the mix of drugs at a dose of 500 mg twice daily and the patients were further observed with a combination of Gentamicin and Rifaximin.

[3] = oral Vancomycin, at four week interview

Compound: C[C@H]1[C@H](NC(=O)/C(=N\OC(C)(C)C(=O)O)c2csc(N)n2)C(=O)N1S(=O)(=O)O [Aztreonam]
- eye contact [1]: greater eye contact
- loose motions [1]: reduction in the loose motions
- socialisation with the other children [1]: greater socialisation
- word power [1]: no increase in word power

Compound: CN[C@H](CC(C)C)C(=O)N[C@H]1C(=O)N[C@@H](CC(N)=O)C(=O)N[C@H]2C(=O)N[C@H]3C(=O)N[C@H](C(=O)N[C@H](C(=O)O)c4cc(O)cc(O)c4-c4cc3ccc4O)[C@H](O)c3ccc(c(Cl)c3)Oc3cc2cc(c3O[C@@H]2O[C@H](CO)[C@@H](O)[C@H](O)[C@H]2O[C@H]2C[C@](C)(N)[C@H](O)[C@H](C)O2)Oc2ccc(cc2Cl)[C@H]1O [Vancomycin]
- abdominal discomfort initially after start of treatment (ASD; oral Vancomycin 50 mg twice daily first week increasing to 250 mg 3 times daily, initially): some increase in abdominal discomfort
- side effects from the medication (ASD; oral Vancomycin 750 mg to 1 g, nine months of treatment): without any undue side effects
- communication, verbal and non-verbal (ASD; oral Vancomycin, after four months): better communication between the parents and the child
- behaviour of the child (ASD; [3]): much calmer
- constipation and pain (ASD; [3]): markedly improved
- repetitive movements (ASD; [3]): came down quite markedly
- pain (ASD; oral Vancomycin, within a few days onwards): progressively disappeared
- bowel function (evacuation frequency) (ASD; oral Vancomycin, within a few days, before: once every three to four days): daily or twice daily and even three times daily evacuation

Compound: CO[C@H]1/C=C/O[C@@]2(C)Oc3c(C)c(O)c4c(O)c(c5c(nc6cc(C)ccn65)c4c3C2=O)NC(=O)/C(C)=C\C=C\[C@H](C)[C@H](O)[C@@H](C)[C@@H](O)[C@@H](C)[C@H](OC(C)=O)[C@@H]1C [rifaximin]
- persistence of the improvement during monitoring (OCD; next 3 months of monitoring their behaviour): almost universal
- OCD behaviour: need to check gas outlets and powerpoints every night (OCD; person, rifaximin 500 mg capsules twice daily first week, then 1 g twice daily): absence of the need to check the gas outlets and powerpoints
- time until absence of the checking behaviour was noticed (OCD; person, rifaximin 500 mg twice daily first week, then 1 g twice daily): ≤ 10 days

Compound: Gentamicin
- episodes of OCD behaviour [2]: marked reduction in the number of episodes of OCD behaviour
